Source: patent US20210324359A1, “USE OF GRAM-NEGATIVE LYSIN-ANTIMICROBIAL PEPTIDE (AMP) POLYPEPTIDE CONSTRUCTS IN TREATING ENDOCARDITIS” (priority 2020, published 2021)
Read-outs that look alike come from different tables or passages of the source.

Legend:
P. aeruginosa (PA20) = test: Rabbit infective endocarditis model (Tables 28-32, FIGS. 5-8); assay type: in vivo, Pseudomonas aeruginosa in rabbits; details: Meropenem 5 mg/kg
Experimental: Initially, a polyethylene catheter was placed into the rabbits' right ventricle and secured. 48 hours after catheter placement, rabbits were infected intravenously with P. aeruginosa (PA20) (6×10^9 CFU/mL). Treatment commenced 24 hours post-infection.
Data were analyzed using the Kruskal-Wallis method for multiple comparison and then adjusted with a false discovery rate approach (Benjamini-Hochberg method), using StatsDirect Software. A p-value of <0.05 was considered statistically significant.

[1] = test system: P. aeruginosa isolate CFS 1558 (PA20); assay type: in vivo
Experimental: A rabbit pulmonary model was used to assess the efficacy of the GN370 lysin alone and in combination with an antibiotic (meropenem). Initially, rabbits were infected intratracheally with P. aeruginosa isolate CFS 1558 (PA20) (3×10^9 CFU). Treatment commenced 6 hours post-infection.

[2] = test system: carbapenem-resistant P. aeruginosa strains; test: Resensitization of carbapenem-resistant strains, combinations with imipenem or meropenem (Tables 18-22); assay type: cell-based, Pseudomonas aeruginosa; details: for MIC: Pseudomonas aeruginosa
P. aeruginosa PA20 = test: MIC of GN370 and meropenem against the infecting strain; assay type: cell-based, Pseudomonas aeruginosa; details: Pseudomonas aeruginosa
P. aeruginosa isolates = test: MIC against a range of isolates in CAA + […] human serum (Table 11); assay type: cell-based, Pseudomonas aeruginosa; details: Pseudomonas aeruginosa
[3] = in combination with GN123, isolate PA19
[4] = in combination with GN123, isolate PA20
[5] = in combination with GN123, isolate PA21
[6] = in combination with GN123, isolate PA22
[7] = in combination with GN123, isolate PA23
[8] = in combination with GN123, isolate PA24
[9] = in combination with GN123, isolate WC-452

Question: `C[C@@H](O)[C@H]1C(=O)N2C(C(=O)O)=C(S[C@@H]3CN[C@H](C(=O)N(C)C)C3)[C@H](C)[C@H]12` [Meropenem, meropenem, reference compound] was tested. Which “Bacterial burden, Mean” value (P. aeruginosa (PA20); cardiac vegetation) did it give?
Answer: 7.22 log10 CFU/g

Question: And the “Mean log10 CFU change v. 24 hr control” value (P. aeruginosa (PA20); cardiac vegetation)?
Answer: −0.68 log10 CFU

Question: And the “Mean log10 CFU change v. vehicle” value (P. aeruginosa (PA20); cardiac vegetation)?
Answer: −0.13 log10 CFU

Question: And the “Bacterial burden, Mean” value (P. aeruginosa (PA20); kidney tissue)?
Answer: 4.64 log10 CFU/g

Question: And the “Mean log10 CFU change v. 24 hr control” value (P. aeruginosa (PA20); kidney tissue)?
Answer: −1.32 log10 CFU

Question: What about the “Mean log10 CFU change v. vehicle” value (P. aeruginosa (PA20); kidney tissue) of the same molecule?
Answer: −0.55 log10 CFU

Question: What about the “Bacterial burden, Mean” value (P. aeruginosa (PA20); lung tissue) of the same molecule?
Answer: 3.75 log10 CFU/g

Question: What about the “Mean log10 CFU change v. 24 hr control” value (P. aeruginosa (PA20); lung tissue) of the same molecule?
Answer: −1.41 log10 CFU

Question: And the “Mean log10 CFU change v. vehicle” value (P. aeruginosa (PA20); lung tissue)?
Answer: −1.25 log10 CFU

Question: What about the “Bacterial burden, Mean” value (P. aeruginosa (PA20); spleen tissue) of the same molecule?
Answer: 3.95 log10 CFU/g

Question: And the “Mean log10 CFU change v. 24 hr control” value (P. aeruginosa (PA20); spleen tissue)?
Answer: −1.00 log10 CFU

Question: And the “Mean log10 CFU change v. vehicle” value (P. aeruginosa (PA20); spleen tissue)?
Answer: −1.62 log10 CFU

Question: And the “decrease of mean bacterial density in lungs” value ([1]; agent alone, compared to the starting CFU and the vehicle control group)?
Answer: about 2 log10 CFU/g

Question: And the “Bacterial burden, Kidneys” value ([1]; meropenem 20 mg/kg)?
Answer: 3.92 ± 0.63 log10 CFU/g

Question: And the “Bacterial burden, Lung 1” value ([1]; meropenem 20 mg/kg)?
Answer: 5.80 ± 0.88 log10 CFU/g

Question: What about the “Bacterial burden, Lung 2” value ([1]; meropenem 20 mg/kg) of the same molecule?
Answer: 5.98 ± 1.14 log10 CFU/g

Question: And the “Bacterial burden, Spleen” value ([1]; meropenem 20 mg/kg)?
Answer: 3.62 ± 0.21 log10 CFU/g

Question: What about the “Log10 CFU/g of vegetation” value ([1]; rabbit lung, Meropenem 20 mg/kg) of the same molecule?
Answer: 6.12 ± 0.89 Log10 CFU/g

Question: What about the MIC ([2]; isolate PA19) of the same molecule?
Answer: 32 µg/mL

Question: And the MIC ([2]; isolate PA20)?
Answer: 16 µg/mL

Question: What about the MIC ([2]; isolate PA21) of the same molecule?
Answer: 32 µg/mL

Question: What about the MIC ([2]; isolate PA22) of the same molecule?
Answer: 16 µg/mL

Question: And the MIC ([2]; isolate PA23)?
Answer: 16 µg/mL

Question: What about the MIC ([2]; isolate PA24) of the same molecule?
Answer: 32 µg/mL

Question: And the MIC ([2]; isolate WC-452)?
Answer: 16 µg/mL

Question: What about the “antibiotic MIC, Combination” value ([2]; in combination with GN121, isolate PA19) of the same molecule?
Answer: 1 µg/mL

Question: What about the “antibiotic MIC, Combination” value ([2]; in combination with GN121, isolate PA20) of the same molecule?
Answer: 1 µg/mL

Question: What about the “antibiotic MIC, Combination” value ([2]; in combination with GN121, isolate PA21) of the same molecule?
Answer: 2 µg/mL

Question: And the “antibiotic MIC, Combination” value ([2]; in combination with GN121, isolate PA22)?
Answer: 1 µg/mL

Question: What about the “antibiotic MIC, Combination” value ([2]; in combination with GN121, isolate PA23) of the same molecule?
Answer: 2 µg/mL

Question: What about the “antibiotic MIC, Combination” value ([2]; in combination with GN121, isolate PA24) of the same molecule?
Answer: 1 µg/mL

Question: And the “antibiotic MIC, Combination” value ([2]; in combination with GN121, isolate WC-452)?
Answer: 1 µg/mL

Question: What about the “antibiotic MIC, Combination” value [2, 3] of the same molecule?
Answer: 0.5 µg/mL

Question: And the “carbapenem susceptibility class, Combination” value [2, 3]?
Answer: (S) ((S) = sensitive)

Question: What about the “antibiotic MIC, Combination” value [2, 4] of the same molecule?
Answer: 0.5 µg/mL

Question: And the “carbapenem susceptibility class, Combination” value [2, 4]?
Answer: (S) ((S) = sensitive)

Question: What about the “antibiotic MIC, Combination” value [2, 5] of the same molecule?
Answer: 1 µg/mL

Question: And the “carbapenem susceptibility class, Combination” value [2, 5]?
Answer: (S) ((S) = sensitive)

Question: What about the “antibiotic MIC, Combination” value [2, 6] of the same molecule?
Answer: 1 µg/mL

Question: And the “carbapenem susceptibility class, Combination” value [2, 6]?
Answer: (S) ((S) = sensitive)

Question: And the “antibiotic MIC, Combination” value [2, 7]?
Answer: 0.5 µg/mL

Question: What about the “carbapenem susceptibility class, Combination” value [2, 7] of the same molecule?
Answer: (S) ((S) = sensitive)

Question: What about the “antibiotic MIC, Combination” value [2, 8] of the same molecule?
Answer: 2 µg/mL

Question: What about the “carbapenem susceptibility class, Combination” value [2, 8] of the same molecule?
Answer: (S) ((S) = sensitive)

Question: What about the “antibiotic MIC, Combination” value [2, 9] of the same molecule?
Answer: 1 µg/mL

Question: And the “carbapenem susceptibility class, Combination” value [2, 9]?
Answer: (S) ((S) = sensitive)

Question: What about the “carbapenem susceptibility class, Combination” value ([2]; in combination with GN351, vs. WC-452) of the same molecule?
Answer: (S) ((S) = sensitive)

Question: And the “carbapenem susceptibility class, Combination” value ([2]; in combination with GN370, vs. WC-452)?
Answer: (S) ((S) = sensitive)

Question: What about the “carbapenem susceptibility class, Combination” value ([2]; in combination with GN428, vs. WC-452) of the same molecule?
Answer: (S) ((S) = sensitive)

Question: And the “carbapenem susceptibility class, antibiotic Alone” value ([2]; isolate PA19)?
Answer: R ((R) = resistant)

Question: And the “carbapenem susceptibility class, antibiotic Alone” value ([2]; isolate PA20)?
Answer: R ((R) = resistant)

Question: What about the “carbapenem susceptibility class, antibiotic Alone” value ([2]; isolate PA21) of the same molecule?
Answer: R ((R) = resistant)

Question: And the “carbapenem susceptibility class, antibiotic Alone” value ([2]; isolate PA22)?
Answer: R ((R) = resistant)

Question: And the “carbapenem susceptibility class, antibiotic Alone” value ([2]; isolate PA23)?
Answer: R ((R) = resistant)

Question: And the “carbapenem susceptibility class, antibiotic Alone” value ([2]; isolate PA24)?
Answer: R ((R) = resistant)

Question: What about the “carbapenem susceptibility class, antibiotic Alone” value ([2]; isolate WC-452) of the same molecule?
Answer: R ((R) = resistant)

Question: What about the “Antibiotic MIC / Lysin MIC, Alone” value ([2]; vs. WC-452 (Table 22)) of the same molecule?
Answer: 16

Question: And the MIC (P. aeruginosa PA20; GN370, read-out: MIC against P. aeruginosa)?
Answer: 16 µg/mL

Question: And the MIC (P. aeruginosa PA20; PA20, read-out: MIC of P. aeruginosa PA20)?
Answer: 16 µg/mL

Question: And the MIC (P. aeruginosa isolates; ATCC17646, read-out: Meropenem MIC, strain CFS 1109 (ATCC 17646))?
Answer: 0.5 µg/mL

Question: What about the MIC (P. aeruginosa isolates; ATCC27853, read-out: Meropenem MIC, strain CFS 1766 (ATCC 27853)) of the same molecule?
Answer: 1 µg/mL

Question: And the MIC (P. aeruginosa isolates; PA1, read-out: Meropenem MIC, strain CFS1539 (PA1))?
Answer: 16 µg/mL

Question: And the MIC (P. aeruginosa isolates; read-out: Meropenem MIC, strain CFS 1292)?
Answer: 32 µg/mL

Question: What about the MIC (P. aeruginosa isolates; read-out: Meropenem MIC, strain CFS 1540 (PA2)) of the same molecule?
Answer: 16 µg/mL

Question: And the MIC (P. aeruginosa isolates; read-out: Meropenem MIC, strain CFS 1541 (PA3))?
Answer: 8 µg/mL

Question: What about the MIC (P. aeruginosa isolates; read-out: Meropenem MIC, strain CFS 1557 (PA19)) of the same molecule?
Answer: 32 µg/mL

Question: And the MIC (P. aeruginosa isolates; read-out: Meropenem MIC, strain CFS 1558 (PA20))?
Answer: 16 µg/mL

Question: What about the MIC (P. aeruginosa isolates; read-out: Meropenem MIC, strain CFS 1559 (PA21)) of the same molecule?
Answer: > 32 µg/mL

Question: And the MIC (P. aeruginosa isolates; read-out: Meropenem MIC, strain CFS 1560 (PA22))?
Answer: 16 µg/mL

Question: What about the MIC (P. aeruginosa isolates; read-out: Meropenem MIC, strain CFS 1561 (PA23)) of the same molecule?
Answer: 16 µg/mL

Question: And the MIC (P. aeruginosa isolates; read-out: Meropenem MIC, strain CFS 1562 (PA24))?
Answer: > 32 µg/mL

Question: What about the MIC (P. aeruginosa isolates; read-out: Meropenem MIC, strain CFS 1596 (PA26)) of the same molecule?
Answer: 0.5 µg/mL

Question: And the MIC (P. aeruginosa isolates; read-out: Meropenem MIC, strain CFS 1597 (PA27))?
Answer: 1 µg/mL

Question: And the MIC (P. aeruginosa isolates; read-out: Meropenem MIC, strain CFS 1669 (PA41))?
Answer: < 0.25 µg/mL

Question: What about the MIC (P. aeruginosa isolates; read-out: Meropenem MIC, strain CFS 1674 (PA46)) of the same molecule?
Answer: 4 µg/mL

Question: And the MIC (P. aeruginosa isolates; read-out: Meropenem MIC, strain CFS 1675 (PA47))?
Answer: 4 µg/mL
